{"source": "paper PMC3591511", "about": "(Expert reviews in molecular medicine, 2012)", "origin": "cited, not measured here", "key": {"IL-2/IL-2Rα": {"molecular_target": "IL-2/IL-2Rα", "details": "antagonist of IL-2/IL-2α receptor interaction; ref [53]"}}}
{"smiles": "CC(C)(C)C[C@H]1N[C@@H](C(=O)NCC[C@H](O)CO)[C@H](c2cccc(Cl)c2)[C@@]12C(=O)Nc1cc(Cl)c(F)cc12.Cl", "note": "[MI-219]", "values": [{"measurement": "inhibition of complex formation", "setting": "p53-MDM2 complex; p53-MDM2, ref [58]", "value": "~ 5 nM"}]}
{"smiles": "COc1ccc(C2=N[C@@H](c3ccc(Cl)cc3)[C@@H](c3ccc(Cl)cc3)N2C(=O)N2CCNC(=O)C2)c(OC(C)C)c1", "note": "[Nutlin-3]", "values": [{"measurement": "activity towards the p53-MDM2 complex", "setting": "p53-MDM2 complex; mid-nanomolar, enantioselective, ref [56]", "value": "~ 70 nM"}]}
{"smiles": "CC(C)C[C@@H](N=C(N)N)C(=O)NCC(=O)N1CCC(c2cc(-c3ccc(OCc4ccc(C(=O)O)o4)c(Cl)c3Cl)nn2C)CC1", "note": "[SP4206]", "values": [{"measurement": "Ki", "setting": "IL-2/IL-2Rα", "value": 60, "unit": "nM"}]}
